For 20 compounds, GI50 results are on record in patent US20240228458A1, “PYRIMIDINE DERIVATIVE HAVING PROTEIN KINASE INHIBITORY ACTIVITY, AND THERAPEUTIC PHARMACEUTICAL COMPOSITION COMPRISING SAME” (THERAPEX CO., LTD., priority 2021, published 2024).

A value given as a limit tells only on which side of the number the result lay.

What all share (type): cell-based
The subject of experiment [1] is Ba/F3 cells expressing EGFR-wt. As to the kind of experiment: Growth inhibition (GI50) of Ba/F3 cells expressing EGFR-wt, Celltiter glo. Conditions: Mus musculus, BaF3, 72 h. As to the method: (§1) In this experimental example, a determination was made as to whether the compounds prepared in Examples 1-283 have the ability to inhibit the growth of Ba/F3 cells expressing EGFR-wt, del19/T790M/C797S (EGFR-DTC), L858R/T790M/C797S (EGFR-LTC), del19/T790M (EGFR-DT), and L858R/T790M (EGFR-LT) variants.
(§2) The parental Ba/F3 cell line is a population of cells that are not introduced with EGFR variants. Specifically, 100 μl of a cell line expressing each variant was plated in a 96-well plate at a density of 100,000 cells/ml. 10-point, 4-fold serial dilutions of each compound were prepared, starting at 2 mM. After 4 h, 0.5 μl of the compound (0.5% DMSO) was added, followed by incubation at 37° C. and 5% CO2 for 72 h. After incubation, the number of viable cells was measured using a Celltiter glo assay kit (Promega) and the GI50 of the compound was determined. The term “GI50” refers to the molar concentration (μM) of the compound required for 50% growth inhibition of cells.

Experiment [2] deals with Ba/F3 cells expressing del19/T790M/C797S (EGFR-DTC). As to the kind of experiment: Growth inhibition (GI50) of Ba/F3 cells expressing del19/T790M/C797S (EGFR-DTC), Celltiter glo. To be noted: Mus musculus, BaF3, 72 h. As to the method:
as §1, §2
A general note: Cellular ATP, detected with luciferase, serves as a proxy for viable cell number.

Experiment [3] deals with Ba/F3 cells expressing L858R/T790M/C797S (EGFR-LTC). Nature of the experiment: Growth inhibition (GI50) of Ba/F3 cells expressing L858R/T790M/C797S (EGFR-LTC), Celltiter glo. Conditions: Mus musculus, BaF3, 72 h. As to the method: as §1, §2
A further experiment deals with parental Ba/F3 cell line. Nature of the experiment: Growth inhibition (GI50) of the parental Ba/F3 cell line (not introduced with EGFR variants), Celltiter glo. Conditions: Mus musculus, BaF3, 72 h, parental Ba/F3 cells. On the procedure: as §2

Consider `CN1CCN(C2CCN(c3nc(Cl)c(Nc4ncc(Br)c(Nc5ccc(F)cc5NS(C)(=O)=O)n4)cc3C(F)(F)F)CC2)CC1` [Example 34, N-(2-((5-bromo-2-((2-chloro-6-(4-(4-methylpiperazin-1-yl)piperidin-1-yl)-5-(trifluoromethyl)pyridin-3-yl)amino)pyrimidin-4-yl)amino)-5-fluorophenyl)methanesulfonamide], for which the GI50 in experiment [1] fell in the range of 2000 to 10000 nM; in experiment [2], 500 to 2000 nM; in experiment [3], 100 to 500 nM; with parental Ba/F3 cell line it was 2000 to 10000 nM.

Regarding `CN1CCN(C2CCN(c3ccc4cc(Nc5ncc(Br)c(Nc6ccc(F)cc6NS(C)(=O)=O)n5)ccc4n3)CC2)CC1` [Example 35, N-(2-((5-bromo-2-((2-(4-(4-methylpiperazin-1-yl)piperidin-1-yl)quinolin-6-yl)amino)pyrimidin-4-yl)amino)-5-fluorophenyl)methanesulfonamide], the GI50 in experiment [1] lay within 100 to 500 nM; in experiment [2], 25 to 100 nM; in experiment [3] it was 25 to 100 nM; in the experiment with parental Ba/F3 cell line, 100 to 500 nM.

For `COc1nc(N2CCN(C3CCN(C)CC3)CC2)ccc1Nc1ncc(Br)c(Nc2ccc(F)cc2NS(C)(=O)=O)n1` [Example 36, N-(2-((5-bromo-2-((2-methoxy-6-(4-(1-methylpiperidin-4-yl)piperazin-1-yl)pyridin-3-yl)amino)pyrimidin-4-yl)amino)-5-fluorophenyl)methanesulfonamide], the GI50 in experiment [1] lay within 500 to 2000 nM; in experiment [2] it was 100 to 500 nM; in experiment [3], 100 to 500 nM; in the experiment with parental Ba/F3 cell line, 2000 to 10000 nM.

For the compound `COc1nc(N2CCN(C3CCN(C)CC3)CC2)c(C(F)(F)F)cc1Nc1ncc(Br)c(Nc2ccc(F)cc2NS(C)(=O)=O)n1` [Example 37], the GI50 (in experiment [1]; in experiment [2]; in experiment [3]; with parental Ba/F3 cell line) was more than 10000 nM each time.

`COc1cc(N2CCC(N3CCC(N(C)C)C3)CC2)c(C)cc1Nc1ncc(Br)c(Nc2ccc(F)cc2NS(C)(=O)=O)n1` (centres unmarked) [Example 40, N-(2-((5-bromo-2-((4-(4-(3-(dimethylamino)pyrrolidin-1-yl)piperidin-1-yl)-2-methoxy-5-methylphenyl)amino)pyrimidin-4-yl)amino)-5-fluorophenyl)methanesulfonamide]: the GI50 in experiment [1] fell in the range of 500 to 2000 nM; in experiment [2] it was 25 to 100 nM; in experiment [3], 100 to 500 nM; with parental Ba/F3 cell line, 2000 to 10000 nM.

Turning to `COc1cc(N2CCC(Nc3ccnn3C)CC2)c(C)cc1Nc1ncc(Br)c(Nc2ccc(F)cc2NS(C)(=O)=O)n1` [Example 41, N-(2-((5-bromo-2-((2-methoxy-5-methyl-4-(4-((1-methyl-1H-pyrazol-5-yl)amino)piperidin-1-yl)phenyl)amino)pyrimidin-4-yl)amino)-5-fluorophenyl)methanesulfonamide], the GI50 is 500 to 2000 nM in experiment [1], 100 to 500 nM in experiment [2], 500 to 2000 nM in experiment [3] and 2000 to 10000 nM in the experiment on parental Ba/F3 cell line.

With `COc1cc(N2CCC(N3CCN(C4CC4)CC3)CC2)c(C)cc1Nc1ncc(Br)c(Nc2ccc(F)cc2NS(C)(=O)=O)n1` [Example 42, N-(2-((5-bromo-2-((4-(4-(4-cyclopropylpiperazin-1-yl)piperidin-1-yl)-2-methoxy-5-methylphenyl)amino)pyrimidin-4-yl)amino)-5-fluorophenyl)methanesulfonamide], the GI50 fell in the range of 500 to 2000 nM in experiment [1], 25 to 100 nM in experiment [2], 100 to 500 nM in experiment [3] and 500 to 2000 nM in the experiment on parental Ba/F3 cell line.

For the compound `COc1cc(N2CCC(N3CCN(C)CC3)CC2)c(C)cc1Nc1ncc(Cl)c(Nc2ccccc2CS(C)(=O)=O)n1` [Example 62], the concentration for 50% growth inhibition (GI50) in experiment [1] was in the range of 100 to 500 nM; in experiment [2], 25 to 100 nM; in experiment [3] it was 25 to 100 nM; in the experiment with parental Ba/F3 cell line, 500 to 2000 nM.

As to `CN1CCN(C2CCN(c3ccc(Nc4ncc(Cl)c(Nc5ccccc5CS(C)(=O)=O)n4)cc3F)CC2)CC1` [Example 63], the GI50 in experiment [1] is 100 to 500 nM; in experiment [2], 25 to 100 nM; in experiment [3], 25 to 100 nM; in the experiment with parental Ba/F3 cell line, 25 to 100 nM.

For `COc1nc(N2CCC(N3CCN(C)CC3)CC2)ccc1Nc1ncc(Cl)c(Nc2ccccc2CS(C)(=O)=O)n1` [Example 64], the GI50 fell in the range of 2000 to 10000 nM in experiment [1], 500 to 2000 nM in experiment [2], 500 to 2000 nM in experiment [3] and 2000 to 10000 nM in the experiment with parental Ba/F3 cell line.

In the case of `COc1cc(N2CCC(N3CCN(C)CC3)CC2)c(C)cc1Nc1ncc(Cl)c(Nc2cc(Cl)ccc2NC(C)=O)n1` [Example 65, N-(4-chloro-2-((5-chloro-2-((2-methoxy-5-methyl-4-(4-(4-methylpiperazin-1-yl)piperidin-1-yl)phenyl)amino)pyrimidin-4-yl)amino)phenyl)acetamide], the GI50 lay within 500 to 2000 nM in experiment [1], 100 to 500 nM in experiment [2], 100 to 500 nM in experiment [3] and 500 to 2000 nM in the experiment with parental Ba/F3 cell line.

In the case of `COc1nc(N2CCC(N3CCN(C)CC3)CC2)c(C)cc1Nc1ncc(Cl)c(Nc2cc(Cl)ccc2NC(C)=O)n1` [Example 66, N-(4-chloro-2-((5-chloro-2-((2-methoxy-5-methyl-6-(4-(4-methylpiperazin-1-yl)piperidin-1-yl)pyridin-3-yl)amino)pyrimidin-4-yl)amino)phenyl)acetamide], the GI50 is 500 to 2000 nM in experiment [1], 500 to 2000 nM in experiment [2], 100 to 500 nM in experiment [3] and 2000 to 10000 nM in the experiment on parental Ba/F3 cell line.

In the case of `COc1cc(N2CCC(N3CCN(C)CC3)CC2)c(C)cc1Nc1ncc(Cl)c(Nc2ccccc2NC(C)=O)n1` [Example 68, N-(2-((5-chloro-2-((2-methoxy-5-methyl-4-(4-(4-methylpiperazin-1-yl)piperidin-1-yl)phenyl)amino)pyrimidin-4-yl)amino)phenyl)acetamide], the GI50 lay in the range of 2000 to 10000 nM in experiment [1], 500 to 2000 nM in experiment [2], 2000 to 10000 nM in experiment [3] and 2000 to 10000 nM in the experiment with parental Ba/F3 cell line.

`CC(=O)Nc1ccccc1Nc1nc(Nc2ccc(N3CCC(N4CCN(C)CC4)CC3)c(F)c2)ncc1Cl` [Example 69, N-(2-((5-chloro-2-((3-fluoro-4-(4-(4-methylpiperazin-1-yl)piperidin-1-yl)phenyl)amino)pyrimidin-4-yl)amino)phenyl)acetamide]: the GI50 in experiment [1] is 25 to 100 nM; in experiment [2] it was 1 to 25 nM; in experiment [3], 1 to 25 nM; in the experiment on parental Ba/F3 cell line, 1 to 25 nM.

With `COc1cc(N2CCC(N3CCN(C)CC3)CC2)c(C)cc1Nc1ncc(Cl)c(Nc2cc(Cl)c(Cl)cc2NC(C)=O)n1` [Example 71, N-(4,5-dichloro-2-((5-chloro-2-((2-methoxy-5-methyl-4-(4-(4-methylpiperazin-1-yl)piperidin-1-yl)phenyl)amino)pyrimidin-4-yl)amino)phenyl)acetamide], the GI50 in experiment [1] was in the range of 100 to 500 nM; in experiment [2], 100 to 500 nM; in experiment [3], 100 to 500 nM; with parental Ba/F3 cell line, 500 to 2000 nM.

`COc1nc(N2CCC(N3CCN(C)CC3)CC2)ccc1Nc1ncc(Cl)c(Nc2cc(Cl)c(Cl)cc2NC(C)=O)n1` [Example 72]: the GI50 was 500 to 2000 nM in experiment [1], 500 to 2000 nM in experiment [2], 500 to 2000 nM in experiment [3] and 2000 to 10000 nM with parental Ba/F3 cell line.

As for `CC(=O)Nc1cc(Cl)c(Cl)cc1Nc1nc(Nc2cnc(N3CCC(N4CCN(C)CC4)CC3)c(F)c2)ncc1Cl` [Example 73, N-(4,5-dichloro-2-((5-chloro-2-((5-fluoro-6-(4-(4-methylpiperazin-1-yl)piperidin-1-yl)pyridin-3-yl)amino)pyrimidin-4-yl)amino)phenyl)acetamide], the GI50 was in the range of 500 to 2000 nM in experiment [1], 500 to 2000 nM in experiment [2], 500 to 2000 nM in experiment [3] and 2000 to 10000 nM in the experiment on parental Ba/F3 cell line.

For `CC(=O)Nc1cc(Cl)c(Cl)cc1Nc1nc(Nc2ccc(N3CCOCC3)nc2)ncc1Cl` [Example 74, N-(4,5-dichloro-2-((5-chloro-2-((6-morpholinopyridin-3-yl)amino)pyrimidin-4-yl)amino)phenyl)acetamide], the GI50 in experiment [1] was more than 10000 nM; in experiment [2], 2000 to 10000 nM; in experiment [3] it was 2000 to 10000 nM; with parental Ba/F3 cell line, more than 10000 nM.

With `COc1cc(N2CCC(N3CCN(C)CC3)CC2)ccc1Nc1ncc(Cl)c(Nc2cc(Cl)c(Cl)cc2NC(C)=O)n1` [Example 75, N-(4,5-dichloro-2-((5-chloro-2-((2-methoxy-4-(4-(4-methylpiperazin-1-yl)piperidin-1-yl)phenyl)amino)pyrimidin-4-yl)amino)phenyl)acetamide], the GI50 (in experiment [1]; in experiment [2]; in experiment [3]; in the experiment on parental Ba/F3 cell line) was 100 to 500 nM each time.

Take `CC(=O)Nc1cc(Cl)c(Cl)cc1Nc1nc(Nc2ccc(N3CCC(N4CCN(C)CC4)CC3)c(F)c2)ncc1Cl` [Example 76, N-(4,5-dichloro-2-((5-chloro-2-((3-fluoro-4-(4-(4-methylpiperazin-1-yl)piperidin-1-yl)phenyl)amino)pyrimidin-4-yl)amino)phenyl)acetamide]: the GI50 (in experiment [1]; in experiment [2]; in experiment [3]; in the experiment with parental Ba/F3 cell line) was 100 to 500 nM each time.

In general, GI50 refers to the concentration that inhibits growth by half.
